Experimental data reported in PubChem BioAssay AID1845201 (Molecular Pharmacology Branch, DTP, NCI, 2023).

Test system: COR L88 complex tumor spheroid viability
Assay: Anticancer human tumor COR L88 cell line growth inhibition;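 note: compound exposure lasted 7 days before viability readout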;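 for viability, T/C: percent of DMSO vehicle-treated spheroids = 100%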
Conditions: for IC50: curve of first compound; for viability, T/C: stronger effect = lower value
In short: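 Complex spheroids of malignant cells with endothelial cells and mesenchymal stem cells; agents alone or combined, from near clinical Cmax (or 10 microM if unknown) down in half-log steps, 0.25% DMSO final.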

[1] = second compound 30 pM, first compound 0.0316 µM
[2] = second compound 30 pM, first compound 0.1 µM
[3] = second compound 30 pM, first compound 0.316 µM
[4] = second compound 30 pM, first compound 1 µM
[5] = second compound 30 pM, first compound 3.16 µM
[6] = second compound 30 pM, first compound 10 µM
[7] = second compound 94.9 pM, first compound 0.0316 µM
[8] = second compound 94.9 pM, first compound 0.1 µM
[9] = second compound 94.9 pM, first compound 0.316 µM
[10] = second compound 94.9 pM, first compound 1 µM
[11] = second compound 94.9 pM, first compound 3.16 µM
[12] = second compound 94.9 pM, first compound 10 µM
[13] = second compound 0.0003 µM, first compound 0.0316 µM
[14] = second compound 0.0003 µM, first compound 0.1 µM
[15] = second compound 0.0003 µM, first compound 0.316 µM
[16] = second compound 0.0003 µM, first compound 1 µM
[17] = second compound 0.0003 µM, first compound 3.16 µM
[18] = second compound 0.0003 µM, first compound 10 µM
[19] = second compound 0.000949 µM, first compound 0.0316 µM
[20] = second compound 0.000949 µM, first compound 0.1 µM
[21] = second compound 0.000949 µM, first compound 0.316 µM
[22] = second compound 0.000949 µM, first compound 1 µM
[23] = second compound 0.000949 µM, first compound 3.16 µM
[24] = second compound 0.000949 µM, first compound 10 µM
[25] = second compound 0.003 µM, first compound 0.0316 µM
[26] = second compound 0.003 µM, first compound 0.1 µM
[27] = second compound 0.003 µM, first compound 0.316 µM
[28] = second compound 0.003 µM, first compound 1 µM
[29] = second compound 0.003 µM, first compound 3.16 µM
[30] = second compound 0.003 µM, first compound 10 µM

Structure (SMILES) | IC50 (second compound 30 pM) | IC50 (second compound 94.9 pM) | IC50 (second compound 0.0003 µM) | IC50 (second compound 0.000949 µM) | IC50 (second compound 0.003 µM) | viability, T/C [1] | viability, T/C [2] | viability, T/C [3] | viability, T/C [4] | viability, T/C [5] | viability, T/C [6] | viability, T/C [7] | viability, T/C [8] | viability, T/C [9] | viability, T/C [10] | viability, T/C [11] | viability, T/C [12] | viability, T/C [13] | viability, T/C [14] | viability, T/C [15] | other results
CC(C)n1c(=O)n(C)c2cnc3cc(F)c(-c4ccc(OCCCN5CCCCC5)nc4)cc3c21 + COc1cc2c(cc1O)CCNC21CSC2c3c(OC(C)=O)c(C)c4c(c3C(COC1=O)N1C(O)C3Cc5cc(C)c(OC)c(O)c5C(C21)N3C)OCO4 | > 10 µM | 9.08 µM | 4.84 µM | 1.99 µM | < 0.0316 µM | 104% | 107% | 95.9% | 104% | 94.1% | 51.2% | 104% | 103% | 98% | 103% | 89.3% | 46.1% | 64.2% | 67.4% | 65.2% | viability, T/C [16]: 68.3%; viability, T/C [17]: 61.2%; viability, T/C [18]: 30.1%; viability, T/C [19]: 57.3%; viability, T/C [20]: 54.5%; viability, T/C [21]: 54.7%; viability, T/C [22]: 53.9%; viability, T/C [23]: 47.3%; viability, T/C [24]: 11.1%; viability, T/C [25]: 0.74%; viability, T/C [26]: 0.77%; viability, T/C [27]: 0.6%; viability, T/C [28]: 0.82%; viability, T/C [29]: 0.66%; viability, T/C [30]: 0.99%
CC1COCCN1c1cc(-c2ccnn2C)c2ccnc(-c3ccn[nH]3)c2n1 (stereo not given) + COc1cc2c(cc1O)CCNC21CSC2c3c(OC(C)=O)c(C)c4c(c3C(COC1=O)N1C(O)C3Cc5cc(C)c(OC)c(O)c5C(C21)N3C)OCO4 | 0.111 µM | < 0.0316 µM | < 0.0316 µM | < 0.0316 µM | < 0.0316 µM | 72.1% | 49.5% | 36.7% | 20.3% | 7.72% | 3.13% | 41.8% | 36.9% | 25.6% | 17.2% | 6.6% | 2.46% | 28.6% | 25.4% | 19.9% | viability, T/C [16]: 11%; viability, T/C [17]: 3.54%; viability, T/C [18]: 1.58%; viability, T/C [19]: 6.86%; viability, T/C [20]: 7.07%; viability, T/C [21]: 3.61%; viability, T/C [22]: 2.02%; viability, T/C [23]: 0.7%; viability, T/C [24]: 0.25%; viability, T/C [25]: 0.56%; viability, T/C [26]: 0.53%; viability, T/C [27]: 0.53%; viability, T/C [28]: 0.41%; viability, T/C [29]: 0.58%; viability, T/C [30]: 0.58%
COc1cc(C)[nH]c(=O)c1CN1CCc2c(Cl)cc(C(OC)C3COC3)c(Cl)c2C1=O (stereo not given) + COc1cc2c(cc1O)CCNC21CSC2c3c(OC(C)=O)c(C)c4c(c3C(COC1=O)N1C(O)C3Cc5cc(C)c(OC)c(O)c5C(C21)N3C)OCO4 | > 10 µM | > 10 µM | < 0.0316 µM | < 0.0316 µM | < 0.0316 µM | 109% | 98.7% | 96.8% | 91.4% | 86.7% | 83.2% | 99.4% | 84.2% | 82.2% | 86.2% | 80.9% | 80.9% | 49.3% | 41.2% | 38% | viability, T/C [16]: 36.3%; viability, T/C [17]: 34.2%; viability, T/C [18]: 31.3%; viability, T/C [19]: 39.6%; viability, T/C [20]: 47.4%; viability, T/C [21]: 44.6%; viability, T/C [22]: 37.7%; viability, T/C [23]: 34.1%; viability, T/C [24]: 18.3%; viability, T/C [25]: 1.16%; viability, T/C [26]: 1.08%; viability, T/C [27]: 0.9%; viability, T/C [28]: 1.24%; viability, T/C [29]: 1.05%; viability, T/C [30]: 1.71%
COc1ccc([C@@H](O)c2cc(-c3ncnc4cc(N5CCOCC5)ccc34)c(F)cc2Cl)nn1 + COc1cc2c(cc1O)CCNC21CSC2c3c(OC(C)=O)c(C)c4c(c3C(COC1=O)N1C(O)C3Cc5cc(C)c(OC)c(O)c5C(C21)N3C)OCO4 | 7.58 µM | > 10 µM | 1.15 µM | 0.111 µM | < 0.0316 µM | 100% | 115% | 93.9% | 89.2% | 64.6% | 45.3% | 104% | 108% | 102% | 67.8% | 57.4% | 52.2% | 71.4% | 63.9% | 61.7% | viability, T/C [16]: 52.5%; viability, T/C [17]: 35.8%; viability, T/C [18]: 9.95%; viability, T/C [19]: 63.2%; viability, T/C [20]: 51.9%; viability, T/C [21]: 22.9%; viability, T/C [22]: 1.63%; viability, T/C [23]: 0.6%; viability, T/C [24]: 1.43%; viability, T/C [25]: 0.95%; viability, T/C [26]: 1.03%; viability, T/C [27]: 1.37%; viability, T/C [28]: 2.44%; viability, T/C [29]: 2.37%; viability, T/C [30]: 2.01%
